Consider seven molecules from patent publication US20210315893A1 (Galapagos NV, priority 2017, published 2021).

The target of assay [1] is T1, human GPCR sphingosine 1-phosphate receptor 1 (Homo sapiens, UniProt P21453).
T1 construct: host or cells: CHO
Briefly: S1PR1 selectivity Ca2+ flux assay (antagonist readout). Type of assay: cell-based. The settings on record: antagonist readout, CHO cells overexpressing human S1PR1 and Gq, S1P at EC80 (6 nM); read-out: S1P1 EC50 (nM), S1P1 antagonist EC50. Summed up: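 Antagonist mode: S1P challenge follows 15 min compound preincubation at 37 °C. Cells are CHO stably expressing human S1PR1, serum-starved 1 h (0.1% FAF BSA), loaded with Fluo 8. Peak-over-baseline fluorescence ratio is normalized to positive/negative controls; IC50 from logistic curve fit.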

In assay [2] the test system is HFL-1 cells. Briefly: IL-8 production assay (S1P induced IL-8). Type of assay: cell-based. The settings on record: Homo sapiens, HFL1; S1P (1 μM) induced IL-8 in HFL-1 cells, starvation medium without HSA; read-out: IL8 EC50. The procedure, abridged:
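HFL-1 fibroblasts in low-serum medium were pretreated 1 h with a 10-point 1/3 series of compound starting at 30 μM (0.3% DMSO).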

The subject of assay [3] is HFL-1 cells. Briefly: IL8 assay in the presence of Human Serum Albumin. Particulars: HFL1, read-out: HSA IL8 EC50.
For assay [4], the system named is bleomycin induced pulmonary fibrosis in mice. Briefly: Therapeutic bleomycin induced pulmonary fibrosis 21-day mice model. It counts as in vivo. Particulars: 10 mg/kg BID. The method, then:
The aim of the study is to test the efficacy of a test compound at three different doses in a 21-day model of bleomycin induced pulmonary fibrosis in mice.
This study is carried out on C57BL/6N male mice, supplied by Charles River, Italy, which are acclimatized for at least 5 days in an environment maintained at 22° C., at 55% relative humidity, with 15-20 air changes per h under light cycles of 12 h. Mice pelleted food and water are provided ad libitum.
The solvent for the test solutions is prepared by adding 0.5 g of hydroxyethylcellulose (Natrosol) into 500 mL Aqua distillate (0.1%) under continuous stirring without heating for 5 h on a magnetic stirrer.
Fresh Nintedanib formulation is prepared daily in 0.1% Natrosol formulations to a final concentration of 5 mg/mL. Before dosing, animals are weighed and the Nintedanib amount administered is adjusted accordingly to individual weights corresponding to 10 mL/kg body weight, once daily p.o.,
Finally, test compound solutions are prepared by dissolving the suitable amount of said test compound in PEG 400 (20% of the final volume) then MC 0.5% (80% of the final volume) to reach final concentrations of 1 mg/mL, 0.3 mg/mL and 0.1 mg/mL, thus yielding compound for a doses of 10 mg/kg, 3 mg/kg and 1 mg/kg. […]
(§1) Pulmonary histological changes are assessed using Matsuse modification of Ashcroft score (Ashcroft et al., 1988; Matsuse et al., 1999). […]

For assay [5] the test system is unchanged. Briefly: Prophylactic bleomycin induced pulmonary fibrosis 14-day mice model. It counts as in vivo. The settings on record: 10 mg/kg BID. The method, then:
The aim of the study is totest the efficacy of atest compound at three different doses ina 14-day model of bleomycin induced pulmonary fibrosis in mice.
This study is carried out on […] male mice, supplied by Charles River, Italy, which are acclimatized for at least 5 days in an environment maintained at 22° C., at 55% relative humidity, with 15-20 air changes per h under light cycles of 12 h. Mice pelleted food and water are provided ad libitum.
The solvent for the test solutions is prepared by adding 0.5 g of hydroxyethylcellulose (Natrosol) into 500 mL Aqua distillate (0.1%) under continuous stirring without heating for 5 h on a magnetic stirrer. Anesthetic solution is prepared by adding 1 mL of Narketan (Narketan 10, Vetoquinol, Bern, Switzerland, 03605877535982) and 0.5 mL of Rompun (Rompun, 2%. Bayer, Leverkusen, Germany) into 9 mL saline. The resulting solution is administered at 10 mL/kg.
Prior to i.n administration, mice are anesthetized i.p. with the anesthetic solution described above.
Fresh pirfenidone formulation is prepared daily in 0.1% Natrosol formulations to a final concentration of 5 mg/mL. […]
as §1

Assay [6] deals with T2, human GPCR sphingosine 1-phosphate receptor 2 (Homo sapiens, UniProt O95136).
T2 construct: host or cells: CHO
Nature of the assay: S1PR2 antagonist Ca2+ flux assay. It counts as cell-based. The settings on record: antagonist mode, CHO-S1PR2 cells, S1P at EC80, Ca2+ fluorescence; read-out: S1P2 EC50 (nM), S1P2 antagonist EC50. Summed up:
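Antagonist mode: 15 min after compound addition, S1P (EC80) stimulates Fluo8-loaded, 1 h-starved CHO-S1PR2 cells, Ca2+ read over 3 min; a prior 3-min read checks compound agonism. EC50 from peak/baseline fluorescence ratio, normalised versus vehicle and S1P EC50 (antagonist) or EC100 (agonist).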

A further assay deals with T3, S1PR2 (Homo sapiens, UniProt O95136).
T3 construct: expressed in transfected cells
Nature of the assay: S1PR2 binding assay (competition with radioactively labeled S1P, SpA). Particulars: membranes from stable cell line over expressing S1PR2, SpA beads; read-out: S1P2 EC50 (nM), S1PR2 binding EC50. The procedure, abridged: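 Scintillation proximity read-out after 2 h room-temperature incubation of compound, [3H]S1P and S1PR2-overexpressing cell membranes on WGA-coated beads. Buffer: 20 mM Tris pH 7.5, 100 mM NaCl, 10 mM MgCl2, 1 mM Na3VO4, 0.4% fatty-acid-free BSA; plates counted immediately after centrifugation.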

The target of assay [7] is T4, human GPCR sphingosine 1-phosphate receptor 5 (Homo sapiens, UniProt Q9H228).
T4 construct: host or cells: CHO
Nature of the assay: S1PR5 selectivity Ca2+ flux assay (antagonist readout). Particulars: CHO cells overexpressing human S1PR5 and Gq, agonist at EC80 (20 nM), read-out: S1P5 EC50 (nM), S1P5 antagonist EC50. Type of assay: cell-based. The procedure, abridged:
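Antagonist readout: after 15 min compound preincubation at 37° C, human S1PR5/Gq CHO cells loaded with Fluo 8 dye received an EC80 challenge of S1PR5-specific agonist, and fluorescence was recorded for 3 min. Maximal-over-background ratios, normalized as % inhibition, gave IC50 by logistic fit.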

T2 sequence (O95136 whole entry): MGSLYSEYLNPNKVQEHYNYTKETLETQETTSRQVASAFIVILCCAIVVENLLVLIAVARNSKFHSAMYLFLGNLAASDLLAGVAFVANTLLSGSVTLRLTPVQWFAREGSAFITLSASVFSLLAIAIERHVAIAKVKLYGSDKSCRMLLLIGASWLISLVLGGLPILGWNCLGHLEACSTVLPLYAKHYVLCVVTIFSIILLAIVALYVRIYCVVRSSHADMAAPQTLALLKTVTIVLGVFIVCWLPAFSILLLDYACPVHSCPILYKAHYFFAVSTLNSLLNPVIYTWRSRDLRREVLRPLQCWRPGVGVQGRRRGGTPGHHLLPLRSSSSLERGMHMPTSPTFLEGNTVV
T3 sequence (O95136 whole entry): as above
T1 sequence (P21453 whole entry): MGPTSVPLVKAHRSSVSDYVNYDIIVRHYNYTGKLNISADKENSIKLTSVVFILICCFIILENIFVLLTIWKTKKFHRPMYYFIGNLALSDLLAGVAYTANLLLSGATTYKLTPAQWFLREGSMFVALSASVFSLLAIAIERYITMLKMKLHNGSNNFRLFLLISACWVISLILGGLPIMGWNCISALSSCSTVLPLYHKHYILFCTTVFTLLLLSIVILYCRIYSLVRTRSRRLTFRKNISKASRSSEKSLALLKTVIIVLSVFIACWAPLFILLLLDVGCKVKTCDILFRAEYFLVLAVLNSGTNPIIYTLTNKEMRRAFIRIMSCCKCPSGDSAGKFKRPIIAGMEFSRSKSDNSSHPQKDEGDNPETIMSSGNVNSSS
T4 sequence (Q9H228 whole entry): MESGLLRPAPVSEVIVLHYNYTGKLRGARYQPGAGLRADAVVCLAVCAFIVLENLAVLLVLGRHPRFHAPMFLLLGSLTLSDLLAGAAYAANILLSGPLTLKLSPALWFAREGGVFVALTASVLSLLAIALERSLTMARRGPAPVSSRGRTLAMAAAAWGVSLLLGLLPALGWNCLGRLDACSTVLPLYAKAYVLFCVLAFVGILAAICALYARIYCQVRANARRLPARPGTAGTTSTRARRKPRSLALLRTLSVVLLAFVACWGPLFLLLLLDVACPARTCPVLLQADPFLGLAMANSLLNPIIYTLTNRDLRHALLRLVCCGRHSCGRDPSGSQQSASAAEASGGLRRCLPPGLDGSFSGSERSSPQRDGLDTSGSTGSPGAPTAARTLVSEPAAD

`O=C(O)Cn1nc(Cc2nc3cc(Cl)c(OCC4CC4)cc3[nH]2)c2ccccc2c1=O` [Compound 115, 2-[4-[[5-chloro-6-(cyclopropylmethoxy)-1H-benzimidazol-2-yl]methyl]-1-oxo-phthalazin-2-yl]acetic acid]: the EC50 in assay [1] was 3620 nM; in the assay with HFL-1 cells [2] it was 5.73 nM; with HFL-1 cells [3], 51.8 nM. Also, the Ashcroft score difference entry in assay [4] and in assay [5] was “statistically significant Ashcroft score difference” throughout.
On to `N#Cc1cc2[nH]c(Cn3nc(CC(=O)N4C[C@H](O)[C@@H](O)C4)c(=O)c4ccccc43)nc2cc1OCC1CC1` [compound 10, 6-(cyclopropyl-methoxy)-2-[[3-[2-[(3S,4S)-3,4-dihydroxy-pyrrolidin-1-yl]-2-oxo-ethyl]-4-oxo-cinnolin-1-yl]methyl]-3H-benzimidazole-5-carbonitrile], for which the EC50 in assay [6] is 4.55 nM; at S1PR2, 11.6 nM; in assay [1], not below 19800 nM; in the assay with HFL-1 cells [2] it was 0.567 nM; in assay [7], 19800 nM; with HFL-1 cells [3] it was 3.17 nM.
As for `O=C(Cn1nc(Cc2cc3cc(Cl)c(OCC(F)F)cc3[nH]2)c2ccccc2c1=O)N1CCOCC1` [compound 11, 4-[[5-chloro-6-(2,2-difluoro-ethoxy)-1H-indol-2-yl]-methyl]-2-(2-morpholino-2-oxo-ethyl)-phthalazin-1-one], the EC50 in assay [6] is 80 nM; on S1PR2, 324 nM; in assay [1] it was not below 19800 nM; in the assay on HFL-1 cells [2], 59.6 nM; in assay [7], 19800 nM; with HFL-1 cells [3], 694 nM.
For `NC(=O)c1ccc2c(=O)n(CC(=O)N3CCOCC3)nc(Cc3nc4cc(OCC(F)F)c(Cl)cc4[nH]3)c2c1` [compound 12, 4-[[6-chloro-5-(2,2-difluoro-ethoxy)-1H-benzimidazol-2-yl]methyl]-2-(2-morpholino-2-oxo-ethyl)-1-oxo-phthalazine-6-carboxamide], the EC50 in assay [6] was 276 nM; at S1PR2, 582 nM; in assay [1], not below 19800 nM; in the assay with HFL-1 cells [2] it was 143 nM; in assay [7], 19800 nM; with HFL-1 cells [3], 1100 nM.
Regarding `N#Cc1cc2[nH]c(Cc3nn(CC(=O)N4CC[C@H](O)C4)c(=O)c4ccccc34)nc2cc1OCC(F)F` [compound 13, 6-(2,2-difluoro-ethoxy)-2-[[3-[2-[(3S)-3-hydroxy-pyrrolidin-1-yl]-2-oxo-ethyl]-4-oxo-phthalazin-1-yl]methyl]-3H-benzimidazole-5-carbonitrile], the EC50 in assay [6] was 120 nM; at S1PR2, 221 nM; in assay [1], not below 19800 nM; in the assay on HFL-1 cells [2], 105 nM; in assay [7], 19800 nM; with HFL-1 cells [3] it was 251 nM.
On to `CC(C(=O)NS(C)(=O)=O)c1nn(Cc2cn3cc(OCC4CC4)c(Cl)cc3n2)c2ccccc2c1=O` (centres unmarked) [compound 15, 2-[1-[[7-chloro-6-(cyclopropyl-methoxy)imidazo-[1,2-a]pyridin-2-yl]methyl]-4-oxo-cinnolin-3-yl]-N-methylsulfonyl-propanamide], for which the EC50 is 5.57 nM in assay [6]; 378 nM at S1PR2; not below 19800 nM in assay [1]; 24.2 nM in the assay with HFL-1 cells [2]; 19800 nM in assay [7]; 343 nM with HFL-1 cells [3].
In the case of `N#Cc1ccc2c(=O)n(CC(=O)O)nc(Cc3nc4cc(Cl)c(OCC(F)F)cc4[nH]3)c2c1` [compound 23, 2-[4-[[5-chloro-6-(2,2-difluoro-ethoxy)-1H-benzimidazol-2-yl]methyl]-6-cyano-1-oxo-phthalazin-2-yl]acetic acid], the half-maximal effective concentration (EC50) was 14.6 nM in assay [6]; 306 nM on S1PR2; not below 19800 nM in assay [1]; 58.1 nM in the assay with HFL-1 cells [2]; 19800 nM in assay [7]; 293 nM in the assay on HFL-1 cells [3].
